{"source": "patent US5622955A", "about": "“Methods of treating cryptosporidium parvum” (The University of North Carolina at Chapel Hill, priority 1995, dated 1997)", "key": {"Pneumocystis carinii [1]": {"system": "Pneumocystis carinii", "assay": "In vivo Activity Against Pneumocystis carinii in Rats", "settings": "saline = 100%"}, "[2]": {"target": "T1, topoisomerase II isolated from P. carinii (Pneumocystis carinii, UniProt A0A0W4ZKQ4)", "T1 construct": "homodimer", "T1 sequence (A0A0W4ZKQ4 1-1493)": "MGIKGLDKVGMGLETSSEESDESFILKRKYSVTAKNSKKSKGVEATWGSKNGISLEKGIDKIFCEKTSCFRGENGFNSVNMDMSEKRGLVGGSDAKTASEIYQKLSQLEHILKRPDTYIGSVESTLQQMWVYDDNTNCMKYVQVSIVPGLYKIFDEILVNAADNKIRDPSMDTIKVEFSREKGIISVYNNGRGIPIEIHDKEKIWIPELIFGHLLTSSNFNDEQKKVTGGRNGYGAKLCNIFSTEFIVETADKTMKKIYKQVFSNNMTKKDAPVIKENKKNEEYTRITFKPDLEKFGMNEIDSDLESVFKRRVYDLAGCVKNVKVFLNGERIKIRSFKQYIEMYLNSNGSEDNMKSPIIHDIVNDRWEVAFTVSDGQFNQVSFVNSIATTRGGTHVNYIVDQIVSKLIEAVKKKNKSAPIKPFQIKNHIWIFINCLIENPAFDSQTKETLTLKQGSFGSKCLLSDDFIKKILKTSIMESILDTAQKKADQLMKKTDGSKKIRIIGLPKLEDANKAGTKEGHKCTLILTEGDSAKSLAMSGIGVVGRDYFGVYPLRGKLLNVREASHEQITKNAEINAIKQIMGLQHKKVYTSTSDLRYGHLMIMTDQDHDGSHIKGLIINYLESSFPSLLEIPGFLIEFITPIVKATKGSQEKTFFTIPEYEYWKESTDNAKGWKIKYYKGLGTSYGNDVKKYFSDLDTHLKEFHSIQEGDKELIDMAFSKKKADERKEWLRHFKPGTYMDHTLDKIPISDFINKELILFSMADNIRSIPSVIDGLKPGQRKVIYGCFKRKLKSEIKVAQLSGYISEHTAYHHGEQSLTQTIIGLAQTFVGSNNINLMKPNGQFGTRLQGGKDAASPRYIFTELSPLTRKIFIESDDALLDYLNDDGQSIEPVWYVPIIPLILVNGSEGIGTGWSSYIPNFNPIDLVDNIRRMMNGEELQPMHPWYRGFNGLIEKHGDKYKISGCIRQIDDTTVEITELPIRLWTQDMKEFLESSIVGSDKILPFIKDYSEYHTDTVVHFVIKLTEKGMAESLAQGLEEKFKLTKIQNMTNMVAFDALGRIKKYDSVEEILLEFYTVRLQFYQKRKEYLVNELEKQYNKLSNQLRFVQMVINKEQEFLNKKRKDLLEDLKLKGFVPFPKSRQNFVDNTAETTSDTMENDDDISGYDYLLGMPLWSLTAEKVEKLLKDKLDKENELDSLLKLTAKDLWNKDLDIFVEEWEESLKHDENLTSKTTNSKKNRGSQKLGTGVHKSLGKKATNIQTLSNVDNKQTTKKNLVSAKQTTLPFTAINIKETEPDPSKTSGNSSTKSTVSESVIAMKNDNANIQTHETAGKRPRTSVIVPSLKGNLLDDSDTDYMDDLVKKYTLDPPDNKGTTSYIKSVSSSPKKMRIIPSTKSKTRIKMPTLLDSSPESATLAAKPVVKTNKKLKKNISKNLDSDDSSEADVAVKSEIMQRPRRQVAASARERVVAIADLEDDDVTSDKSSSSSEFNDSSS", "assay": "Inhibition of topoisomerase II isolated from P. carinii", "type": "biochemical", "description": "^c Inhibition of topoisomerase II isolated from P. carinii. See, C.\nDykstra, et al., J. Protozool. 38:78S (1991)."}, "poly dA.dT": {"system": "poly dA.dT", "assay": "DNA binding: increase in thermal melting of poly dA.dT", "description": "^a Increase in thermal melting of poly dA.dT. See, W. Wilson, et al.,"}, "G. lamblia": {"system": "G. lamblia", "assay": "50% inhibitory concentration against G. lamblia", "type": "cell-based", "description": "^d 50% Inhibitory concentration against G. lamblia, P. carinii\ntopoisomerase. See, Bell, et al., supra."}, "Pneumocystis carinii [3]": {"system": "Pneumocystis carinii", "settings": "rat, in vivo"}, "C. Parvum": {"system": "C. Parvum", "assay": "Inihibition of C. Parvum", "type": "in vivo"}, "[4]": {"settings": "Giardia duodenalis; read-out: G. lamblia IC50"}}, "note": "Structures can show the parent of a compound that is named as a salt. Where two headings read alike, the source gives them in different places.", "data": [{"smiles": "COc1cc(C(=N)NC(C)C)ccc1-c1ccnc(-c2ccc(C(=N)NC(C)C)cc2)n1", "note": "[Compound 5, 2-(4-[N-i-propylguanyl]phenyl)-4-(2-methoxy-4-[N-i-propylguanyl]phenyl)pyrimidine]", "values": [{"measurement": "cyst/g Lung", "setting": "Pneumocystis carinii [1]; 2.5 mg/Kg per day", "result": 1.0, "unit": "%"}, {"measurement": "Topoisomerase P. Carinii (Inhibition of topoisomerase II isolated from P. carinii)", "setting": "[2]", "result": "no"}, {"measurement": "DNA binding (Increase in thermal melting of poly dA.dT)", "setting": "poly dA.dT", "result": 13.9}, {"measurement": "IC50", "setting": "G. lamblia; [4]", "result": 36700, "unit": "nM"}]}, {"smiles": "Cl.N=C(N)c1ccc(-c2ccnc(-c3ccc(C(=N)N)cc3)n2)cc1", "note": "[Compound 1, 2,4-Bis-(4-guanylphenyl)pyrimidine hydrochloride]", "values": [{"measurement": "cyst/g Lung", "setting": "Pneumocystis carinii [1]; 5.0 mg/Kg per day", "result": 2.4, "unit": "%"}, {"measurement": "cyst/g Lung", "setting": "Pneumocystis carinii [1]; 10.0 mg/Kg per day", "result": 0.8, "unit": "%"}, {"measurement": "Toxicity", "setting": "Pneumocystis carinii [3]; 5 mg/kg/day", "result": 0}, {"measurement": "Toxicity", "setting": "Pneumocystis carinii [3]; 10 mg/kg/day", "result": "1+"}, {"measurement": "DNA binding (Increase in thermal melting of poly dA.dT)", "setting": "poly dA.dT", "result": 21.5}, {"measurement": "% efficacy", "setting": "C. Parvum; 0.1 mg/kg/day", "result": 30, "unit": "%"}, {"measurement": "% efficacy", "setting": "C. Parvum; 5 mg/kg/day", "result": 68, "unit": "%"}, {"measurement": "% efficacy", "setting": "C. Parvum; 25 mg/kg/day", "result": 50, "unit": "%"}, {"measurement": "IC50", "setting": "G. lamblia; [4]", "result": 2000, "unit": "nM"}]}, {"smiles": "N=C(N)c1ccc(OCCCCCOc2ccc(C(=N)N)cc2)cc1", "note": "[Pentamidine, reference compound]", "values": [{"measurement": "DNA binding (Increase in thermal melting of poly dA.dT)", "setting": "poly dA.dT", "result": 12.8}, {"measurement": "IC50", "setting": "G. lamblia; Giardia duodenalis, read-out: G. lamblia IC50", "result": 2600, "unit": "nM"}]}, {"smiles": "c1cc(-c2ccc(C3=NCCN3)cc2)nc(-c2ccc(C3=NCCN3)cc2)n1", "note": "[Compound 2, 2,4Bis[(4imidazolin-2-yl)phenyl]pyrimidine hydrochloride]", "values": [{"measurement": "cyst/g Lung", "setting": "Pneumocystis carinii [1]; 5.0 mg/Kg per day", "result": 2.4, "unit": "%"}, {"measurement": "Toxicity", "setting": "Pneumocystis carinii [3]; 5 mg/kg/day", "result": 0}, {"measurement": "IC50", "setting": "G. lamblia; [4]", "result": 3000, "unit": "nM"}]}, {"smiles": "c1ccc(-c2nccc(-c3ccc(C4=NCCN4)cc3)n2)cc1", "note": "[Compound 4, 2phenyl-4-[4(imidazolin-2-yl)phenyl]pyrimidine hydrochloride]", "values": [{"measurement": "cyst/g Lung", "setting": "Pneumocystis carinii [1]; 5.0 mg/Kg per day", "result": 21.1, "unit": "%"}, {"measurement": "IC50", "setting": "G. lamblia; [4]", "result": 2000, "unit": "nM"}]}, {"smiles": "c1cc(-c2ccc(C3=NCCCN3)cc2)nc(-c2ccc(C3=NCCCN3)cc2)n1", "note": "[Compound 3, 2,4Bis[(4tetrahydropyrimmidinyl-2-yl)phenyl]pyrimidine hydrochloride]", "values": [{"measurement": "cyst/g Lung", "setting": "Pneumocystis carinii [1]; 2.5 mg/Kg per day", "result": 85.2, "unit": "%"}, {"measurement": "DNA binding (Increase in thermal melting of poly dA.dT)", "setting": "poly dA.dT", "result": 25}, {"measurement": "IC50", "setting": "G. lamblia; [4]", "result": 790, "unit": "nM"}]}]}
